{"source": "patent US20100249050A1", "about": "“[…] AND USE THEREOF” (SHANDONG UNIVERSITY, priority 2008, published 2010)", "conditions_in_all_cases": "for Inhibition rate of growth: 48-72 hrs", "key": {"[1]": {"system": "human liver cancer cell HepG2", "assay": "Antitumor activity test (MTT reduction / SRB protein staining), growth inhibition of HepG2", "assay_type": "cell-based", "from_the_text": "(§1) Screening method: methyl-thiazol-tettazolium (MTT) reduction method and sulforhodamine B (SRB) protein staining method.\n(§2) Cell strains: human liver cancer cell HepG2, human lung cancer cell A-549, and breast cancer cell MDA-MB-435."}, "[2]": {"system": "human lung cancer cell A-549", "assay": "Antitumor activity test (MTT reduction / SRB protein staining), growth inhibition of A-549", "assay_type": "cell-based", "from_the_text": "as §1, §2"}, "[3]": {"system": "breast cancer cell MDA-MB-435", "assay": "Antitumor activity test (MTT reduction / SRB protein staining), growth inhibition of MDA-MB-435", "assay_type": "cell-based, human", "from_the_text": "as §1, §2"}}}
{"smiles": "CC(=Cc1csc(C)n1)C1CC2OC2CCCC(C)C(O)C(C)C(=O)C(C)(C)C(OC2OC(CO)C(O)C2O)CC(=O)O1", "note": "(centres unmarked) [epothilone glycoside A-1]", "values": [{"measurement": "IC50", "setting": "[1]; HepG2, 48-72 hrs", "value": 70, "unit": "nM"}, {"measurement": "Inhibition grade (no / weak / strong effect)", "setting": "[1]; HepG2, at the concentration of 10^−6 M", "value": "strong inhibition"}, {"measurement": "Inhibition rate of growth", "setting": "[1]; HepG2, concentration 10^−4 M", "value": 100}, {"measurement": "Inhibition rate of growth", "setting": "[1]; HepG2, concentration 10^−5 M", "value": 99.9}, {"measurement": "Inhibition rate of growth", "setting": "[1]; HepG2, concentration 10^−6 M", "value": 93.3}, {"measurement": "Inhibition rate of growth", "setting": "[1]; HepG2, concentration 10^−7 M", "value": 41.5}, {"measurement": "Inhibition rate of growth", "setting": "[1]; HepG2, concentration 10^−8 M", "value": 15.7}, {"measurement": "Inhibition grade (no / weak / strong effect)", "setting": "[2]; A-549, at the concentration of 10^−6 M", "value": "weak inhibition"}, {"measurement": "Inhibition rate of growth", "setting": "[2]; A-549, concentration 10^−4 M", "value": 90.6}, {"measurement": "Inhibition rate of growth", "setting": "[2]; A-549, concentration 10^−5 M", "value": 83.7}, {"measurement": "Inhibition rate of growth", "setting": "[2]; A-549, concentration 10^−6 M", "value": 72.0}, {"measurement": "Inhibition rate of growth", "setting": "[2]; A-549, concentration 10^−7 M", "value": 0}, {"measurement": "Inhibition rate of growth", "setting": "[2]; A-549, concentration 10^−8 M", "value": 0}, {"measurement": "IC50", "setting": "[3]; MDA-MB-435, 48-72 hrs", "value": 2070, "unit": "nM"}, {"measurement": "Inhibition grade (no / weak / strong effect)", "setting": "[3]; MDA-MB-435, at the concentration of 10^−6 M", "value": "weak inhibition"}, {"measurement": "Inhibition rate of growth", "setting": "[3]; MDA-MB-435, concentration 1 μM", "value": 18.9}, {"measurement": "Inhibition rate of growth", "setting": "[3]; MDA-MB-435, concentration 2 μM", "value": 55.0}, {"measurement": "Inhibition rate of growth", "setting": "[3]; MDA-MB-435, concentration 4 μM", "value": 76.1}, {"measurement": "Inhibition rate of growth", "setting": "[3]; MDA-MB-435, concentration 8 μM", "value": 84.6}, {"measurement": "Inhibition rate of growth", "setting": "[3]; MDA-MB-435, concentration 10 μM", "value": 98.2}]}
